In paper PMC5764437, “Discovery of novel, orally bioavailable, antileishmanial compounds using phenotypic screening” (PLoS Neglected Tropical Diseases, 2017):
Entries after “also recorded” stand apart in the source; their conditions may differ. Where two headings read alike, the source gives them in different places.

Experiments:
[1] = test system: L. donovani intracellular amastigotes; assay: Growth inhibition of intracellular amastigotes in J774A.1 macrophages (Renilla luciferase luminescence); format: cell-based; conditions: Leishmania donovani, J774.A1; intracellular amastigotes in J774A.1 macrophages; mean ± standard deviation, n = 2; read-out: L. donovani EC50
Procedure: (§1) L. mexicana (MNYZ/BZ/62/M379) or L. donovani (LdBob strain) parasites expressing the Renilla luciferase gene from a rRNA gene locus were used to infect J774A.1 macrophages. Growth of intracellular amastigotes was measured using a luminescence assay, as detailed previously. The growth inhibitor activities of compounds were tested against bloodstream form Lister 427 T. brucei in 96-well plates containing 1 X 10^5 parasites per well in 0.2 ml HMI-11 medium (Gibco/Thermo Fisher). Compounds (2 μl volumes in DMSO) were added to the parasites using serial 3-fold dilutions to cover a range of concentrations from about 10 μM to 1 nM. After 48 h incubation at 37°C under a humidified 5% CO2 atmosphere, 10 μl of 10% Triton X-100 and 100 X stock SYBR Green I (Sigma-Aldrich) in PBS was added and florescence measured (excitation 497 nm; emission 520 nm) after 1 h incubation in the dark using a Spectra Max Gemini XPS fluorimeter (Molecular Devices). Data were log transformed and EC50 values were determined using GraphPad Prism 6 (GraphPad Software). In the absence of growth inhibiting compounds, the parasites grew from an initial density of 5 X 10^5 cells/mL to ~3 X 10^6 cells/mL.

[2] = Liver microsomal stability, mouse; conditions: female, liver microsomes, pH 7.4
Procedure: One part of 10 mM DMSO compound stock was mixed with 4 parts of acetonitrile to make 2 mM diluted compound stock in DMSO and acetonitrile. 29.1 µL diluted compound stock was added to 2.3 mL liver microsomal solution and vortexed to make microsomal solution with compound. […] For the 0 h time point, 450 µL pre-cooled (4 °C) internal standard (10 µM warfarin in methanol) was added to the first three columns before the reaction was initiated. 1.25 ml of microsome assay solution A (Fisher Scientific, #NC9255727) was combined with 0.25 ml of solution B (Fisher Scientific, #NC9016235) in 3.5 ml of potassium phosphate buffer (0.1 M, pH 7.4). 45 µL of this A+B solution was added to each well of the 96-well storage plate (reaction plate). Liquid in the first 3 columns was moved to another storage plate (quenched plate). The reaction plate was then sealed, incubated at 37 °C, and shaken at a speed of 60 rpm. Time points (0.5 h, 1 h, 2 h) were taken. At each time point, 450 µL pre-cooled internal standard was added to 3 rows in the reaction plate, and the liquid was then transferred to the quenched plate. […] 200 µL supernatant was transferred to a 96-well plate and analyzed by ultra-performance liquid chromatography-mass spectrometry (UPLC-MS) (Waters Inc.). The compounds and internal standard were detected by selected ion recording (SIR).

Caco-2 cells = assay: Caco-2 permeability assay; format: in vitro ADME; conditions: predicted from solubility and membrane permeability
[3] = Dose-ranging tolerability / 10-day toxicity study in mice; format: in vivo, mouse
Procedure: Drug doses were chosen based on pilot toxicology and pharmacokinetic studies. Female BALB/C mice (compound 4) or C57BL6 (compound 5) of 17–21 grams were purchased from Charles River Laboratories (Wilmington, MA). Food and water were provided ad libitum. Two mice were used as control and another 5 mice were dosed daily via oral gavage (25 mg/kg with compound 4 and 50 mg/kg with compound 5). Every day blood was collected by retro-orbital bleed from one animal from the treatment group for pharmacokinetics. […] Each mouse received two blood collections and glucose measurements over the 10-day course of treatment.

[4] = Parallel Artificial Membrane Permeability Assay (PAMPA); conditions: pH 7.4
Procedure: Parallel Artificial Membrane Permeability Assay (PAMPA) was conducted by Biomek FX lab automation workstation (Beckman Coulter, Inc.) and PAMPA evolution 96 command software (pION Inc.). A 3 µL aliquot of […] test compound stock in DMSO was mixed with 597 µL of isotonic citrate phosphate buffered saline to make diluted test compound. Diluted test compound (150 µL) was transferred to a UV plate (pION Inc.) and the UV spectrum was read as the reference plate. The membrane on a pre-loaded PAMPA sandwich (pION Inc.) was painted with 4 µL GIT lipid (pION Inc.). The acceptor chamber was then filled with 200 µL acceptor solution buffer, (pION Inc.), and the donor chamber was filled with 180 µL diluted test compound. The PAMPA sandwich was assembled, placed on the Gut-Box and stirred for 30 min. The Aqueous Boundary Layer was set to 40 µm for stirring. The UV spectrum (250-500 nm) of the donor and the acceptor solutions were recorded. The permeability coefficient was calculated using PAMPA Evolution 96 Command software (pION Inc.) based on the AUC of the reference plate, the donor plate and the acceptor plate. All compounds were tested in triplicate.

[5] = test system: bloodstream form Lister 427 T. brucei; assay: Growth inhibition of T. brucei bloodstream forms (SYBR Green I); format: cell-based; conditions: Trypanosoma brucei, bloodstream form; mean ± standard deviation, n = 2; read-out: T. brucei EC50
Procedure: as §1

[6] = test system: bloodstream form Lister 427 T. brucei; parameters: method as in PMID 23484493; conditions: bloodstream form of Trypanosoma brucei; read-out: T. brucei bloodstream form EC50 (previously reported); cited from earlier work
[7] = Dose-ranging tolerability / 10-day toxicity study in mice; format: in vivo, mouse; conditions: oral, 30 mg/kg
[8] = 50 mg/kg, 10-day toxicity study

Row | SMILES | EC50 [1] | half-life at 20 μM [2] | Predicted absorption across the intestinal epithelium (Caco-2 cells) | Tolerability of daily oral administration ([3]; daily oral, 25 mg/kg) | Seizures ([3]; oral gavage, 25 mg/kg) | Glucose level ([3]; oral gavage, 25 mg/kg, at Cmax and Cmin) | Seizures / seizure-like behavior ([3]; oral gavage, 50 mg/kg) | Glucose level in plasma ([3]; oral gavage, 50 mg/kg, untreated mice 185–251 mg/dl) | Papp at 30 min, 0.05 µM [4] | EC50 [5] | Food intake [3, 8] | Weight loss [3, 8] | EC50 [6] | Tolerability (weight loss, appetite, other toxicity) [7]
1 | COc1ccc(-c2c(C(F)(F)F)oc3c(CN4CCN(C)CC4)c(O)ccc3c2=O)cc1OC [Compound 4] | 600 ± 500 nM | > 4 h | ~ 85% | well-tolerated in all study animals; also recorded: No weight loss or other toxicity was observed | no seizures were seen | remained within normal limits | half of the animals exhibited seizure-like behavior | 23 to 40 mg/dL | 375 ×10⁻⁶ cm/s | 11000 ± 1000 nM |  |  |  | 
2 | Cc1ccc(-c2nc3ccccc3s2)cc1NC(=O)c1cc([N+](=O)[O-])c(N2CCN(C)CC2)cc1Cl [Compound 5] | 29 ± 27 nM | > 4 h |  |  |  |  |  |  | 237 ×10⁻⁶ cm/s |  | reduced food intake | more than 10% | 27 nM | suppressed appetite was resolved by dose reduction to 30 mg/kg; also recorded: No weight loss or other toxicity was observed
